Test results as given in patent US20030119813A1, “Derivatives of pyrimido[6,1-a]isoquinolin-4-one” (priority 2001, published 2003).
Blank lines part the entries; values can stand above or below the compound they belong to.

Assays:
[1] = system: guinea-pig isolated trachea; assay: Superfusion of guinea-pig tracheal rings, contraction to electrical field stimulation; details: for inhibition of contractile responses, duration of action: electrical-induced contraction of guinea-pig isolated trachea; for OT50 (onset time: time to reach 50% of the maximum inhibition of the contractile response) / RT50 (recovery time: time for 50% reversal of the maximum inhibition after terminating exposure): superfused guinea-pig trachea, electrical field stimulation, 10 μM; for OT50 (onset time: time to reach 50% of the maximum inhibition of the contractile response): mean and s.e. mean of three observations; for RT50 (recovery time: time for 50% reversal of the maximum inhibition after terminating exposure): washout
Procedure: Superfusion of guinea-pig tracheal rings was performed according to a previously described method (Coleman et al. Pulmonary Pharmacology 9 107-117 (1996)). Briefly, guinea-pig tracheal preparations were cut into rings and then opened by sectioning the ring opposite the smooth muscle and suspended between two platinum electrodes under 1 g tension. The tissues were superfused at a rate of from 1 to 3.25 ml/min with Krebs-Henseleit solution at 37° C. containing the cyclooxygenase inhibitor, indomethacin (5 μM) and bubbled with 95% O2 and 5% CO2. Tracheal preparations were allowed to equilibrate for 40 minutes before commencement of electrical stimulation, delivered as a 10 s train of square wave pulses at 3 Hz, 0.1 ms duration and 20V (approx 400 mamps) generated every 100 sec by means of physiological square wave-stimulator. The compounds of the present invention were superfused at a rate of 0.2 to 0.3 ml/min ad contractile responses to electrical field stimulation were recorded on a Macintosh computer using MacLab sor vare. The drug was prepared in DMSO and diluted in Krebs-Henseleit solution which yielded a final superfusion concentration of 0.05 to 0.1% DMSO.
The duration of action was determined and expressed as onset time (OT50) and recovery time (RT50).

[2] = system: guinea-pig tracheal rings; assay: Organ bath experiments, guinea-pig tracheal rings, electrical field stimulation; details: final concentration 10 μM, n=1
Procedure: Guinea-pig tracheal rings were suspended in organ baths under 1 g tension between two electrodes and subjected to electrical field stimulation (3 Hz, 0.1 ms duration and 20V (approx 400 mAmps) generated every 100 sec by means of physiological square wave-stimulator. The compounds of Examples 1, 2 and 8 were dissolved in DMSO containing Tween 80 (10%) and distilled water (0.01M), which were then added to the organ bath to give a final concentration of 10 μM.

[3] = system: human mononuclear cells stimulated by PHA; assay: Proliferation of human mononuclear cells stimulated by PHA ([3H]-thymidine); format: cell-based; details: PHA 2 μg/ml, n=6, read-out: IC50 against proliferation of human mononuclear cells stimulated with PHA
Procedure: Normal healthy volunteers underwent phlebotomy and 25 ml of blood was collected. Mononuclear cells were separated and purified according to the method of Banner et al. (Banner et al. Br. J. Pharmacol. 116 3169-3174 (1995)). Human peripheral mononuclear cells (100,000 per well) were stimulated for 24 h with phytohaemagglutinin (PHA, 2 μg/ml) in the absence or presence of the compounds of Examples 1, 2 and 8 (0.001-100 μM) at 37° C. in a 95% air, 5% CO2 atmosphere. Twenty four hours later, [^3H]-thymidine (0.1 μCi) was added to each well and the cells were incubated for a further 24 h period. Cells were then harvested onto glass fibre filters using a cell harvester (ICN Flow, Buckinghamshire) and counted in a scintillation counter.

PDE3 (human platelet) = target: T1, PDE3 (human platelet) (Homo sapiens, UniProt Q14432); assay: PDE3 inhibition; format: biochemical
T1 construct: (human platelet); from tissue; host or cells: human platelets
T1 sequence (Q14432 whole entry): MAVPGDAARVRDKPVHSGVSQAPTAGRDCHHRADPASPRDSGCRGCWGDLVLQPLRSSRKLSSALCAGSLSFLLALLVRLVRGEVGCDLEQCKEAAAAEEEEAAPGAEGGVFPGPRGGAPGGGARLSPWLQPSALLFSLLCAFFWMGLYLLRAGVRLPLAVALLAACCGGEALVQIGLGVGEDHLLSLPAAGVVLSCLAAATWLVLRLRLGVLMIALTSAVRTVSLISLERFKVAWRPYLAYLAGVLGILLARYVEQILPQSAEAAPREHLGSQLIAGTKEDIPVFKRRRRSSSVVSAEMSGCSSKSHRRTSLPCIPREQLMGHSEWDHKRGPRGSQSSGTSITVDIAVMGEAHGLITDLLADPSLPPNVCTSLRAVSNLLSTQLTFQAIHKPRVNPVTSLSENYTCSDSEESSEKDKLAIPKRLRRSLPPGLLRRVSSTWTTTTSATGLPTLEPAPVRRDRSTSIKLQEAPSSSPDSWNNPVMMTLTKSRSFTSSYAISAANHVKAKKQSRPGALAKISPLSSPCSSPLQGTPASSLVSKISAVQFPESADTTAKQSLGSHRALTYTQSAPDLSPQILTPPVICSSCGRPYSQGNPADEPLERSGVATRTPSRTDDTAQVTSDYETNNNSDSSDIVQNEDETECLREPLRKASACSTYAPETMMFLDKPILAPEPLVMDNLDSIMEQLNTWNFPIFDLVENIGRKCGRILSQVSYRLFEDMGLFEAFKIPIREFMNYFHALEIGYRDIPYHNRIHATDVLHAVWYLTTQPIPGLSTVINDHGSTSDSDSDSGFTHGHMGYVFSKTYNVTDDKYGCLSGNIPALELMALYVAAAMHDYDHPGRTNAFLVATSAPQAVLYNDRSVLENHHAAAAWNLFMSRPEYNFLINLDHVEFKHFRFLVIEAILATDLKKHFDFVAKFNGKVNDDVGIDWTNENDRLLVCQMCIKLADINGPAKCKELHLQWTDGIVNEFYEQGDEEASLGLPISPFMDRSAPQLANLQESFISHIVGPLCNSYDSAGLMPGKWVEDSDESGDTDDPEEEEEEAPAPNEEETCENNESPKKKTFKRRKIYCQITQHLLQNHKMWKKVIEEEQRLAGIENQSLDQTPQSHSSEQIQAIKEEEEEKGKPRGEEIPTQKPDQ

PDE4 (human neutrophil) = assay: PDE4 inhibition; format: biochemical
[4] = system: LPS induced TNF-α release from human monocytes; assay: LPS induced TNF-α release from human monocytes; format: cell-based; details: Monocyte
Procedure: 6,7-Dihydro-2-(2,6-diisopropylphenoxy)-9,10-dimethoxy-4H-pyrimido-[6,1-a]isoquinolin-4-one (compound of Example 2) was tested for effects on LPS induced TNF-α release from human monocytes.

[5] = system: histamine induced bronchospasm; assay: Histamine induced bronchospasm, inhaled dry powder, guinea-pig; format: in vivo
Procedure: 1. The above compound was tested in a model of histamine induced bronchospasm. Conscious guinea-pigs were exposed to dry powder (micronised) of the compound. The drug was blended with lactose so that the final concentration was 0.25, 2.5 and 25%. At various times after exposure to drug the animals were anaesthetised and challenged with varying doses of histamine. Total airway resistance and mean arterial blood pressure were recorded.

[6] = system: mean arterial blood pressure; assay: Intravenous administration to urethane anaesthetised guinea-pigs, mean arterial blood pressure; format: in vivo, guinea-pig; details: 0.1 to 300 μg/kg
Procedure: 2. […] The compound was dissolved in DMSO then diluted with saline (there was evidence that the compound had come out of solution).

[7] = system: recruitment of eosinophils to the lungs; assay: Antigen induced eosinophilia in the ovalbumin sensitised guinea-pig; format: in vivo; details: 10 mg/kg orally 1 hour prior to antigen challenge, ovalbumin sensitised guinea-pigs

SMILES: COc1cc2c(cc1OC)-c1cc(Oc3ccccc3C3CCCC3)nc(=O)n1CC2 [Example 13, 2-(2-Cyclopentylphenoxy)-9,10-dimethoxy-6.7-dihydro-4H-pyrimido[6,1-a]-isoquinolin-4-one]
inhibition of contractile responses, duration of action [1]: inhibit the contractile responses with a long duration of action | OT50 (onset time: time to reach 50% of the maximum inhibition of the contractile response) [1]: 18.6 ± 1.5 min | RT50 (recovery time: time for 50% reversal of the maximum inhibition after terminating exposure) [1]: >300 min

SMILES: CCc1cccc(CC)c1Oc1cc2n(c(=O)n1)CCc1cc(OC)c(OC)cc1-2 [Example 3, 2-(2,6-diethylphenoxy)-6,7-dihydro-9,10-dimethoxy-4H-pyrimido-[6,1-a]isoquinolin-4-one]
inhibition of contractile responses, duration of action [1]: inhibit the contractile responses with a long duration of action | OT50 (onset time: time to reach 50% of the maximum inhibition of the contractile response) [1]: 17 ± 1 min | RT50 (recovery time: time for 50% reversal of the maximum inhibition after terminating exposure) [1]: >240 min

SMILES: COc1cc2c(cc1OC)-c1cc(Oc3c(C)cccc3C)nc(=O)n1CC2 [Example 1, 6,7-Dihydro-2-(2,6-dimethylphenoxy)-9,10-dimethoxy-4H-pyrimido-[6,1-a]isoquinolin-4-one]
inhibition of the contractile response to electrical field stimulation [2]: complete inhibition | IC50 [3]: 5130 nM

SMILES: COc1cc2c(cc1OC)-c1cc(Oc3ccccc3CC(C)C)nc(=O)n1CC2 [Example 10, 9,10-Dimethoxy-2-(2-isobutylphenoxy)-6,7-dihydro-4H-pyrimido[6,1-a]isoquinolin-4-one]
inhibition of contractile responses, duration of action [1]: inhibit the contractile responses with a long duration of action | OT50 (onset time: time to reach 50% of the maximum inhibition of the contractile response) [1]: 17.5 ± 1.25 min | RT50 (recovery time: time for 50% reversal of the maximum inhibition after terminating exposure) [1]: >300 min

SMILES: COc1cc2c(cc1OC)-c1cc(Oc3c(Cl)cccc3Cl)nc(=O)n1CC2 [Example 8, 2-(2,6-Dichlorophenoxy)-6,7-dihydro-9,10-dimethoxy-4H-pyrimido-[6,1-a]isoquinolin-4-one]
inhibition of the contractile response to electrical field stimulation [2]: complete inhibition | IC50 [3]: 8220 nM

IC50 (PDE3 (human platelet)): 107 nM | IC50 (PDE4 (human neutrophil)): 1200 nM | IC50 ([4]; n = 6): 250 nM
SMILES: COc1cc2c(cc1OC)-c1cc(Oc3c(C(C)C)cccc3C(C)C)nc(=O)n1CC2 [Example 2, 6,7-Dihydro-2-(2,6-diisopropylphenoxy)-9,10-dimethoxy-4H-pyrimido-[6,1-a]isoquinolin-4-one]
inhibition of contractile responses, duration of action [1]: inhibit the contractile responses with a long duration of action | OT50 (onset time: time to reach 50% of the maximum inhibition of the contractile response) [1]: 24.9 ± 5.0 min | RT50 (recovery time: time for 50% reversal of the maximum inhibition after terminating exposure) [1]: >240 min | inhibition of the contractile response to electrical field stimulation [2]: complete inhibition | IC50 [3]: 2900 nM | protection against histamine induced bronchospasm (total airway resistance) ([5]; conscious guinea-pigs exposed to dry powder (25% in lactose)): significant protection against histamine induced bronchospasm | effect on mean arterial blood pressure ([5]; guinea-pigs, inhaled dry powder (25%)): without changing mean arterial blood pressure | effect on mean arterial blood pressure [6]: dose dependant reduction in mean arterial blood pressure | recruitment of eosinophils to the lungs following antigen challenge [7]: significantly inhibited

IC50 ([4]; n = 6): 92 nM
SMILES: COc1ccc([C@H](Cc2ccncc2)c2ccccc2)cc1OC1CCCC1 [CDP 840]

IC50 ([4]; unit printed in the cell beside the value): > 100000 nM
SMILES: CN/C(=N\c1ccc(C2=NNC(=O)CC2C)cc1)NC#N (centres unmarked) [Siguazodan]

SMILES: CCc1ccccc1Oc1cc2n(c(=O)n1)CCc1cc(OC)c(OC)cc1-2 [Example 12, 9,10-Dimethoxy-2-(2-ethylphenoxy)-6,7-dihydro-4H-pyrimido[6,1-a]isoquinolin-4-one]
inhibition of contractile responses, duration of action [1]: inhibit the contractile responses with a long duration of action | OT50 (onset time: time to reach 50% of the maximum inhibition of the contractile response) [1]: 9.7 ± 0.6 min | RT50 (recovery time: time for 50% reversal of the maximum inhibition after terminating exposure) [1]: 263 min

SMILES: COc1cc2c(cc1OC)-c1cc(Oc3ccccc3C(C)(C)C)nc(=O)n1CC2 [Example 11, 2-(2-tert-butylphenoxy)-9,10-dimethoxy-6,7-dihydro-4H-pyrimido[6,1-a]isoquinolin-4-one]
inhibition of contractile responses, duration of action [1]: inhibit the contractile responses with a long duration of action | OT50 (onset time: time to reach 50% of the maximum inhibition of the contractile response) [1]: 14.7 ± 1.33 min | RT50 (recovery time: time for 50% reversal of the maximum inhibition after terminating exposure) [1]: >300 min

SMILES: COc1cc2c(cc1OC)-c1cc(=Nc3c(C)cc(C)cc3C)n(C)c(=O)n1CC2 [Trequinsin, 9,10-dimethoxy-3-methyl-2-mesitylimino-2,3,6,7-tetrahydro-4H-pyrimido[6,1-a]isoquinolin-4-one, reference compound]
OT50 (onset time: time to reach 50% of the maximum inhibition of the contractile response) [1]: 14 min | RT50 (recovery time: time for 50% reversal of the maximum inhibition after terminating exposure) [1]: 146 min
